Like-named read-outs stand apart in the source and are kept apart here.
System: A549
Experiment: In vitro anti-proliferative MTT assay, A549
Type: cell-based, human
Conditions: for IC50: Homo sapiens, A549
Method: These two cell lines were selected in this test due to the overexpression of EGFR in human lung and colon cancer cell lines[48]^,[49]. The tested cells were reported to have a high expression level of EGFR. […]
1.1. In vitro antiproliferative activities
The in vitro antiproliferative activities of all the synthesized compounds against two human […]
evaluated quantitatively as described in the literature, using MTT assay protocol . two […]
proliferative activity was assessed quantitatively as follows.
Human cancer cell lines were dropped in 96 -well plates at a density of 3-8 × 10^3 cells/well.
Next, the wells were incubated for 12 h in a 5% CO 2 incubator at 37 °C. Then, for each well, the growth medium was exchanged with 0.1 ml of fresh medium containing graded concentrations of the test compounds to be or equal DMSO and incubated for two days. Then 10 μl MTT solution ([…]) was added to each well, and the cells were incubated for additional 4 h. The crystals of MTT-formazan were dissolved in 100 μl of DMSO; the absorbance of each well was measured at 490 nm using an automatic ELISA reader system (TECAN, CHE). The IC 50 values were calculated using the nonlinear regression fitting models (Graph Pad, Prism Version 5). The data represented the mean of three independent experiments in triplicate and were expressed as means ± SD. The […]
The results were expressed as growth inhibitory concentration (IC50) values and […]

`CC(=NNc1nc(Nc2ccccc2)nc2c1cnn2-c1ccccc1)c1ccc(Cl)cc1` [Compound 12b, 4–(2-(1–(4-Chlorophenyl)ethylidene)hydrazinyl)-N,1-diphenyl-1H-pyrazolo[3,4-d]pyrimidin-6-amine] was tested, and the IC50 (MTT, mean of three experiments, read-out: In vitro cytotoxicity IC50, A549) was 8.21 µM, the IC50 (supplement IC50 graph, unit inferred, read-out: IC50 (best-fit value of graph), A549) was 8.22 µM and the “HillSlope (best-fit value), A549” value (supplement IC50 graph) was -0.3430. For the same compound, the “LogIC50 (best-fit value), A549” value (supplement IC50 graph) was 0.9146.
